# In patent publication US8853188B2, “Compositions and methods for cancer treatment” (Women and Infants Hospital of RI, Inc., priority 2005, dated 2014):
# “Also recorded” adds a separate entry of the source.
# How the values were obtained:
# [1] = test system: SMS-KCNR cells; assay: Proliferation of apoptosis-resistant NB cells; type: cell-based; conditions: data not shown
# Experimental: NB is characterized with defective apoptotic pathways. […] Neuronal (N-) type SH-SY5Y and IMR-32 cells, and stromal (S-) type SMS-KCNR cells which are resistant to apoptosis were used. […] A defect in caspase-8 or its activation causes resistance to apoptosis and in turn to chemotherapy in all these cells. On the other hand, these cells carry intact intrinsic apoptotic pathway, and executioner caspase-3 is activated by caspase-9 route.
# (§1) In depth studies were carried out to assess the activation of intrinsic and extrinsic apoptotic pathways. […] Caspase-9 was activated by B3CD in these cells (FIG. 10B), indicating an active role of intrinsic pathway of apoptosis. […] However, caspase-8 was undetectable in IMR-32 and SH-SY5Y cells.
# [2] = mouse, in vivo
# Experimental: FIG. 6A. In vivo studies to determine apparent systemic toxicity of B3CD. Mice were injected with the specified amounts of B3CD (i.p.) once in 48 hr for 28 days. The animals were weighed to assess the effect of B3CD on change in body weight.
# FIG. 6B. At the end of the experiment (6A) mice were sacrificed and blood collected to estimate serum calcium as a measure of hypercalcemia.
# A major concern was the potential systemic toxicity of B3CD due to hypercalcemia since B3CD (FIG. 1) is a derivative of calcidiol, which is a family member of calcitriol (Schmidt-Gayk H, Bouillon R, Roth H J. Measurement of vitamin D and its metabolites (calcidiol and calcitriol) and their clinical significance. Scand J Clin Lab Invest Suppl. 1997; 227:35-45). Therapeutic doses of calcitriol lead to increased serum calcium and consequently death; therefore, hypercalcemia is a hallmark of lethality of pharmacologic doses of calcitriol. In the event that further testing in vivo might show lethal calcemic side effects, preliminary studies were carried out to determine any overt toxic effects in a murine model.
# The effect of B3CD on serum calcium levels in SCID mice was tested. These studies were carried out in Boston University School of Medicine, Boston, Mass., in accordance with institutional guidelines. B3CD, calcidiol and calcitriol were formulated in 80% polyethylene glycol in PBS and were administered as i.p. injections once in 48 hours for 28 days. Animals were euthanized, sera collected and analyzed immediately for serum calcium in the hospital core facility. The animals were divided into 4 groups of 5 animals each.
# [3] = test system: ERK1/2; assay: Western Blot analysis of ERK phosphorylation; type: cell-based; conditions: neuroblastoma cells
# Experimental: (§2) Materials and methods. Proliferation was measured by MTS and BrdU incorporation assays. Apoptosis was assessed by DNA fragmentation, Cell Death Detection ELISA and caspase-3-assays. Effect of B3CD on TrkB signaling by BDNF was assessed by Western Blot analysis of AKT and ERK phosphorylation. The effect on angiogenesis was determined by chick chorioallantoic membrane (CAM) assay and aortic ring assay.
# Neuroblastoma cells were treated with B3CD for 48 hrs. […] AT 0.5 nM, B3CD inhibited >50% (p<0.035) and >90% at […] (p<0.01) viability and proliferation respectively.
# [4] = test system: neuroblastic cells; assay: Apoptosis (DNA fragmentation, Cell Death Detection ELISA), FIG. 4A; type: cell-based
# Experimental: as §2
# (§3) B3CD was tested on the panel of cell described above. […] Such cell-type specificity is not uncommon. […] However, keratinocytes were not affected by B3CD (FIG. 4A; Lane-2). In addition, caspase-3 activity was increased by B3CD (FIG. 4B). These studies indicated an underlying apoptotic mechanism in the anticancer activity of B3CD.
# [5] = test system: IMR-32 cells; assay: Proliferation of apoptosis-resistant NB cells; type: cell-based; conditions: data not shown
# [6] = test system: caspase-3; assay: Caspase-3 immunoblot in NB cells; type: cell-based; conditions: SMS-KCNR, IMR-32 and SH-SY5Y cells
# Experimental: FIG. 10A. Caspase-3 immunoblot.
# as §1
# [7] = test system: SK-N-SH cells; assay: Proliferation by BrdU incorporation assay; type: cell-based; conditions: 0-800 nM, 48 hours
# Experimental: (§4) SK-N-SH and SH-SY5Y neuroblastic cells were treated with increasing doses of calcidiol or B3CD (0, 25, 50, 100, 200, 400 and 800 nM) for 48 hours. Cell viability was assessed by MTS assay and proliferation was determined by BrdU incorporation assay.
# [8] = test system: endothelial cells; assay: Apoptosis in endothelial cells (DNA fragmentation); type: cell-based
# Text: (§5) Apoptosis in EC by B3CD was studied by DNA fragmentation and caspase-3 activation analyses as before.
# [9] = test system: VEGF induced angiogenesis; assay: Chick chorioallantoic membrane (CAM) assay; type: in vivo
# Experimental: as §2
# The antiproliferative effect of B3CD on endothelial cells was further investigated.
# The ability of B3CD to inhibit angiogenesis/neovascularization was tested. Preliminary studies were carried out using chick chorioallantoic membrane (CAM) assay. Calcidiol or B3CD were deposited in the presence of growth factor (VEGF) and deposited on the CAM and eggs were incubated for 3 days at 37° C. (3% CO2). The control carried the growth factor alone. VEGF induces angiogenesis which results in sprouting of capillaries from the large vessels. The compounds diffuse out and any inhibitory molecule would reduce the growth of blood vessel network.
# [10] = test system: SK-N-SH cells; assay: Cell viability by MTS assay; type: cell-based; conditions: 48 hours
# Experimental: as §4
# [11] = test system: caspase-3; assay: Caspase-3 activation in endothelial cells; type: cell-based; conditions: data not shown
# Text: as §5
# [12] = test system: pancreatic cells; assay: Proliferation (MTS, BrdU), FIG. 3; type: cell-based
# Experimental: as §2, §3
# [13] = test system: breast cells; assay: Proliferation (MTS, BrdU), FIG. 3; type: cell-based
# Experimental: as §2, §3
# [14] = test system: macrophage cells; assay: Proliferation (MTS, BrdU), FIG. 3; type: cell-based
# Experimental: as §2, §3
# [15] = test system: prostate cancer cells; assay: Proliferation (MTS, BrdU), FIG. 3; type: cell-based
# Experimental: as §2, §3
# [16] = test system: endothelial cells; assay: Proliferation (MTS, BrdU), FIG. 3; type: cell-based
# Experimental: as §2, §3
# [17] = test system: ovarian cancer cells; assay: Proliferation (MTS, BrdU), FIG. 3; type: cell-based
# Experimental: as §2, §3
# [18] = test system: skin cells; assay: Proliferation (MTS, BrdU), FIG. 3; type: cell-based
# Experimental: as §2, §3
# [19] = test system: neuroblastic cells; assay: Proliferation (MTS, BrdU), FIG. 3; type: cell-based
# Experimental: as §2, §3
# [20] = test system: smooth muscle cells; assay: Proliferation (MTS, BrdU), FIG. 3; type: cell-based
# Experimental: as §2, §3
# [21] = test system: osteosarcoma cells; assay: Proliferation (MTS, BrdU), FIG. 3; type: cell-based
# Experimental: as §2, §3
# [22] = test system: caspase-8; assay: Caspase-8 immunoblot in NB cells; type: cell-based; conditions: SMS-KCNR cells
# Experimental: FIG. 10D. Caspase-8 immunoblot.
# as §1
# Although caspase-8 was detected in SMS-KCNR cells, it was not activated by B3CD (FIG. 10D). Actin immunoblotting was used as loading control in the above studies (data not shown).
smiles,measurement,setting,value
"C=C1CC[C@H](OC(=O)CBr)C/C1=C/C=C1\CCC[C@]2(C)[C@@H]([C@H](C)CCCC(C)(C)O)CC[C@@H]12 [B3CD, bromoacetic acid 3-{2-[1-(5-hydroxy-1,5-dimethyl-hexyl)-7a-methyl-octahydro-inden-4-ylidene]-ethylidene}-4-methylene-cyclohexyl ester]",inhibition of proliferation,[1],dose dependent inhibition of proliferation
same,"clinical signs (lethargy, tolerance to handling, mobility)",[2],showed no such signs
same,toxicity in murine models,[2],no toxicity
same,phosphorylation of ERK1/2,[3],inhibited phosphorylation
same,DNA laddering (apoptosis),[4],distinct DNA laddering characteristic of apoptosis
same,induction of apoptosis,[4],induced rapid apoptosis
same,inhibition of proliferation,[5],dose dependent inhibition of proliferation
same,caspase-3 activation (immunoblot),[6],activated
same,"proliferation, BrdU incorporation",[7],strong inhibition of proliferation
same,DNA fragmentation,[8],DNA fragmentation characteristic of apoptosis
same,induction of apoptosis,[8]; data not shown,induced apoptosis
same,inhibition of angiogenesis / neovascularization (in words),[9]; VEGF present,inhibited VEGF induced angiogenesis; also recorded: inhibit
same,inhibition of neovascularization,[9]; compared to untreated controls,~60%
same,density of fine capillary network,[9]; versus VEGF control eggs,markedly reduced
same,viability of SK-N-SH cells (in words),[10]; 0-800 nM,dose dependent decrease
same,viability at 0.2 µM,"[10]; Homo sapiens, SK-N-SH, 200 nM",< 20%
same,increase in caspase-3 activity,[11],5 fold
same,effect on proliferation,[12],did not show an effect on proliferation
same,effect on proliferation,[13],did not show an effect on proliferation
same,effect on proliferation,[14],did not show an effect on proliferation
same,antiproliferative and cytotoxic effects,[15],potent antiproliferative and cytotoxic effects
same,antiproliferative and cytotoxic effects,[16],potent antiproliferative and cytotoxic effects; also recorded: inhibit proliferation
same,antiproliferative and cytotoxic effects,[17],potent antiproliferative and cytotoxic effects
same,effect on proliferation,[18],did not show an effect on proliferation
same,antiproliferative and cytotoxic effects,[19],potent antiproliferative and cytotoxic effects
same,cell viability,[19]; by 24 hours,less than 15 % of the untreated control cells
same,effect on proliferation,[20],did not show an effect on proliferation
same,effect on proliferation,[21],did not show an effect on proliferation
same,caspase-8 activation (immunoblot),[22],not activated
